# In US10793580B2, “Substituted pyrazoloazepin-8-ones and their use as phosphodiesterase inhibitors” (LEO Pharma A/S, priority 2016, dated 2020):
# Molecular target: human PDE4D catalytic domain (Homo sapiens (Human), UniProt Q08499)
# Experiment: PDE4 Assay (TR-FRET, FAM-cAMP cleavage)
# Format: biochemical
# Conditions: Table 17, Examples 297-316; read-out: PDE4 IC50 range
# How it was run: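 PDE4D catalytic domain (S380-L740) incubated briefly with unlabelled cAMP plus FAM-cAMP and titrated compound. Reaction stopped with binding buffer holding metal-ion nanoparticles that bind AMP phospho groups and Tb donor, and AMP formation read by TR-FRET. IC50 versus controls, reported as ranges (nM).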
# Chain of human PDE4D catalytic domain (Q08499 380-740): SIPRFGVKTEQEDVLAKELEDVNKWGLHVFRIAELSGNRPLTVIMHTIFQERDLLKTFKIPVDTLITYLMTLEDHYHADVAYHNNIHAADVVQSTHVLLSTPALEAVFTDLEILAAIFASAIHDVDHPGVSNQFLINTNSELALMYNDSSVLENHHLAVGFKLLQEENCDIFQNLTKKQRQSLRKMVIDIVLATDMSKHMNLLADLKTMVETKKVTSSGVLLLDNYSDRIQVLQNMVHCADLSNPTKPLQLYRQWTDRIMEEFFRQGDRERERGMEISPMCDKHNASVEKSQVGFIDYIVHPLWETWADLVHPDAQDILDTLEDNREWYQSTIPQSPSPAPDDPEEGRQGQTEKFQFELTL
row,Structure (SMILES),IC50
1,"CCn1nc(CC(C)(C)COC(=O)c2cc(C)n(C)n2)c2c1C(=O)NCC1(CCOCC1)C2 [Example 309, [3-(1-ethyl-8-oxo-spiro[6,7-dihydro-4H-pyrazolo[3,4-c]azepine-5,4′-tetrahydro-pyran]-3-yl)-2,2-dimethyl-propyl] 1,5-dimethylpyrazole-3-carboxylate]",< 100 nM

# Same assay, conditions: human PDE4D catalytic domain (UniProt Q08499 [S380-L740]); 50% inhibition of substrate cleavage; read-out: PDE4 IC50 range
row,Structure (SMILES),IC50
1,"CCc1nc(C(=O)OCCCc2nn(CC)c3c2CC2(CCOCC2)CNC3=O)co1 [Example 251, 3-(1-ethyl-8-oxo-spiro[6,7-dihydro-4H-pyrazolo[3,4-c]azepine-5,4′-tetrahydropyran]-3-yl)propyl 2-ethyloxazole-4-carboxylate]",< 100 nM
2,"CCn1nc(CCCOC(=O)c2ccc(Cl)cc2C(F)(F)F)c2c1C(=O)NCC1(CCOCC1)C2 [Example 84, 3-(1-ethyl-8-oxo-spiro[6,7-dihydro-4H-pyrazolo[3,4-c]azepine-5,4′-tetrahydropyran]-3-yl)propyl 4-chloro-2-(trifluoromethyl)benzoate]",< 100 nM
3,"CCn1nc(CC(C)(C)COC(=O)c2cccc(C(=O)N3CCCCC3)c2)c2c1C(=O)NCC1(CCOCC1)C2 [Example 231, [3-(1-ethyl-8-oxo-spiro[6,7-dihydro-4H-pyrazolo[3,4-c]azepine-5,4′-tetrahydro-pyran]-3-yl)-2,2-dimethyl-propyl] 3-(piperidine-1-carbonyl)benzoate]",< 100 nM
4,"CCn1nc(CCCCOC(=O)C2CCOCC2)c2c1C(=O)NCC1(CCOCC1)C2 [Example 270, 4-(1-ethyl-8-oxo-spiro[6,7-dihydro-4H-pyrazolo[3,4-c]azepine-5,4′-tetrahydropyran]-3-yl)butyl tetrahydropyran-4-carboxylate]",< 100 nM
5,"CCn1nc(CCCOC(=O)c2ccccc2)c2c1C(=O)NCC1(CCOCC1)C2 [Example 7, 3-(1-ethyl-8-oxo-spiro[6,7-dihydro-4H-pyrazolo[3,4-c]azepine-5,4′-tetrahydropyran]-3-yl)propyl benzoate]",< 100 nM
6,"CCn1nc(CCCCOC(=O)c2ccc(S(=O)(=O)NC)cc2)c2c1C(=O)NCC1(CCOCC1)C2 [Example 131, 4-(1-ethyl-8-oxo-spiro[6,7-dihydro-4H-pyrazolo[3,4-c]azepine-5,4′-tetrahydropyran]-3-yl)butyl 4-(methyl-sulfamoyl)benzoate]",< 100 nM
7,"CCn1nc(C[C@@H](C)COC(=O)c2cccc(F)c2)c2c1C(=O)NCC1(CCOCC1)C2 [Example 143, [(2R)-3-(1-ethyl-8-oxo-spiro[6,7-dihydro-4H-pyrazolo[3,4-c]azepine-5,4′-tetrahydropyran]-3-yl)-2-methyl-propyl] 3-fluorobenzoate]",< 100 nM
8,"CCn1nc(CCCOC(=O)C2CCN(C(C)=O)CC2)c2c1C(=O)NCC1(CCOCC1)C2 [Example 261, 3-(1-ethyl-8-oxo-spiro[6,7-dihydro-4H-pyrazolo[3,4-c]azepine-5,4′-tetrahydropyran]-3-yl)propyl 1-acetylpiperidine-4-carboxylate]",< 100 nM
9,"CCn1nc(CCCCOC(=O)c2cnc(C)nc2)c2c1C(=O)NCC1(CCOCC1)C2 [Example 271, 4-(1-ethyl-8-oxo-spiro[6,7-dihydro-4H-pyrazolo[3,4-c]azepine-5,4′-tetrahydropyran]-3-yl)butyl 2-methylpyrimidine-5-carboxylate]",< 100 nM
10,"CCn1nc(CCCOC(=O)c2cccc(C(=O)N3CCCCC3)c2)c2c1C(=O)NCC1(CCOCC1)C2 [Example 117, 3-(1-ethyl-8-oxo-spiro[6,7-dihydro-4H-pyrazolo[3,4-c]azepine-5,4′-tetrahydropyran]-3-yl)propyl 3-(piperidine-1-carbonyl)benzoate]",< 100 nM
11,"CCn1nc(CC(C)(C)COC(=O)c2cccc(S(=O)(=O)N3CCOCC3)c2)c2c1C(=O)NCC1(CCOCC1)C2 [Example 212, [3-(1-ethyl-8-oxo-spiro[6,7-dihydro-4H-pyrazolo[3,4-c]azepine-5,4′-tetrahydropyran]-3-yl)-2,2-dimethyl-propyl] 3-morpholinosulfonylbenzoate]",< 100 nM
